# Tests used:
# human glioma cells (U87) = test: In vitro toxicity / cell growth inhibition, XTT assay, U87 cells; format: cell-based; details: 100 μM, 72 hours later
# Protocol: Place 150 μL of a mixture liquid containing 10000 human glioma cells (U87) into every well of a 96-well culture plate. Place the culture plates in a humidified incubator at a temperature of 37 C.° and with 5% CO2 to enable adherent growth of the cells. […] Once cell counting begins, remove RPMI1640 and add 120 μL of an XTT reaction liquid (2,3-Bis(2-methoxy-4-nitro-5-sulfophenyl)-2H-tetrazolium-5-carboxanili de inner salt).
# mouse glioma cells (C6) = test: In vitro toxicity / cell growth inhibition, XTT assay, C6 cells; format: cell-based; details: 100 μM, 12 hours later
# Protocol: Place 150 μL of a mixture liquid containing 10000 mouse glioma cells (C6) into every well of a 96-well culture plate. Place the culture plates in a humidified incubator at a temperature of 37 C.° and with 5% CO2 to enable adherent growth of the cells. […] Once cell counting begins, remove RPMI1640 and add 120 μL of an XTT reaction liquid (2,3-Bis(2-methoxy-4-nitro-5-sulfophenyl)-2H-tetrazolium-5-carboxanili de inner salt).
# [1] = Storage stability, residual activity by Bratton-Marshall assay
# Excerpt: Use the Bratton-Marshall assay to detect the residual activities after the storages of 1-30 days for comparing the storage stabilities. Refer to FIGS. 5(a)-5(c).
structure (smiles),measurement,setting,value
"O=NN(CCCl)C(=O)NCCCl [BCNU, 1,3-bis(2-chloroethyl)-1-nitrosourea]",U87 cell growth-inhibition ratio,human glioma cells (U87),49%
same,solubility in water,Solubility in water,low solubility in water
same,C6 cell growth-inhibition ratio,mouse glioma cells (C6),53%
same,half-life,[1]; storing at 4° C.,300 h
same,half-life,[1]; storing at 25° C.,22 h
same,half-life,[1]; storing at 37° C.,12 h
same,remains after storage,[1]; stored for 30 days,22%
